Laboratory results: patent US11224222B2, “Synergistic compositions of dehydroacetic acid and methods for reducing yellowing in various end-user compositions” (ISP Investments LLC, priority 2015, dated 2022)
Read-outs that look alike come from different tables or passages of the source.

Experiments:
Mold Mixture = assay: Preservative Efficacy Test in Lamellar Prolipid formulation: Mold Mixture; type: cell-based
Excerpt: (§1) The detailed composition of these end-user products comprising DHA solubilized Propyelene Carbonate is described below in detail.

S. aureus = assay: Preservative Efficacy Test in Lamellar Prolipid formulation: S. aureus; type: cell-based
Excerpt: as §1

Bacterial Mixture = assay: Preservative Efficacy Test in Lamellar Prolipid formulation: Bacterial Mixture; type: cell-based
Excerpt: as §1

[1] = Yellowing of DHA in aprotic and protic solvents; type: physicochemical
Excerpt: The various solvents selected are disclosed in Table 8.
The yellowing of DHA increased drastically when aprotic aromatic compounds were present along with DHA due to radical coupling between DHA and such solvents comprising aromatic compounds.
The decomposition of DHA was low at room temperature (RT) and at high temperature, wherein, the small amount of DHA decompose to form a radical and couple by themselves to form traces high of epsilon chromophoric products and if aromatic aprotic solvents are present along with DHA in solution they couple to form a longer chromophore with high intensity yellow color in water.

[2] = Solubility of DHA in aprotic and protic solvents
Excerpt: In order to choose the suitable solvent for preparing non-yellowing DHA composition, the different possible protic, aprotic solvents were selected and evaluated individually and also as their suitable mixture.
In case of aprotic solvents, it was selected based on its compatibility with other ingredients present in the end-user products. Further, the regulatory requirement was also considered as an important element in choosing preferred aprotic solvent for preparing non-yellowing/reduced-yellowing DHA composition of the present application. The high content of DHA can be introduced in the solvent by dispersing or dissolving the DHA in their corresponding aprotic solvents. […] The various solvents selected are disclosed in Table 8.
Further, the applicants have evaluated various protic solvents to understand their ability to render non-yellowing/reduced-yellowing DHA composition for employing in various end-user products that are aqueous in nature.

[3] = system: A. brasilensts (ATCC 16404); assay: Synergism study (MIC, synergy index) of DHA with aprotic solvents: A. brasilensts; type: cell-based
Experimental: (§2) Tryptic Soy Broth (TSB) media was used for bacterial evaluations and Yeast Malt Broth (YMB) for fungal evaluations. The compounds DHA or the aprotic solvents were added to the media and serially diluted. After serially diluting the media, 100 μl of a suspension of the testing bacteria or fungi were added to a final concentration of approximately 106 −5 CFU/ml. The inoculated media was then incubated at 32° C. for 2-5 days for bacteria or at 28° C. for 3-7 days for fungi.
(§3) The lowest concentration of each compound or mixtures to inhibit visible growth was taken as the minimum inhibitory concentration (MIC). The MIC's were taken as end points of activity. End points for the mixtures of compound A (DHA) and compound B (aprotic solvent) were then compare with the end points for the pure active ingredient alone.
(§4) Synergism was determined by a commonly used and accepted method described by Kull A. C.; Eisman, P. C.; Sylwestrowicz, H. D. and Mayer, R. L. 1961. […]

E. coli (ATCC 8739) = assay: Synergism study (MIC, synergy index) of DHA with aprotic solvents: E. coli; type: cell-based
Experimental: as §2, §3, §4

S. aureus (ATCC 6538) = assay: Synergism study (MIC, synergy index) of DHA with aprotic solvents: S. aureus; type: cell-based
Experimental: as §2, §3, §4

[4] = DHA in the named protic polar solvent, RT
[5] = DHA in the named protic polar solvent (Table 9)
[6] = DHA in the named aprotic solvent, RT, 1 month

In the case of `CCCCCCC(O)CO` (stereo not shown) [0.5% octanediol], the “Preservative Efficacy Test count, Mold Mixture, Days 2” value (Mold Mixture; day 2) is reported as 2.10E+04, the “Preservative Efficacy Test count, Mold Mixture, Days 7” value (Mold Mixture; day 7) is reported as 1.80E+04 and the “Preservative Efficacy Test count, Mold Mixture, Days 14” value (Mold Mixture; day 14) is reported as 4.40E+03. For the same compound, the “Preservative Efficacy Test count, Mold Mixture, Days 21” value (Mold Mixture; day 21) was 4.30E+03, the “Preservative Efficacy Test count, Mold Mixture, Days 28” value (Mold Mixture; day 28) was 5.00E+04 and the “Preservative Efficacy Test count, S. aureus, Days 2” value (S. aureus; day 2) was 4.00E+01. For the same compound, the “Preservative Efficacy Test count, S. aureus, Days 7” value (S. aureus; day 7) was less than 10, the “Preservative Efficacy Test count, S. aureus, Days 14” value (S. aureus; day 14) was less than 10 and the “Preservative Efficacy Test count, S. aureus, Days 21” value (S. aureus; day 21) was less than 10. The “Preservative Efficacy Test count, S. aureus, Days 28” value (S. aureus; day 28) was less than 10, the “Preservative Efficacy Test count, Bacterial Mixture, Days 2” value (Bacterial Mixture; day 2) was less than 10 and the “Preservative Efficacy Test count, Bacterial Mixture, Days 7” value (Bacterial Mixture; day 7) was less than 10. The “Preservative Efficacy Test count, Bacterial Mixture, Days 14” value (Bacterial Mixture; day 14) was less than 10, the “Preservative Efficacy Test count, Bacterial Mixture, Days 21” value (Bacterial Mixture; day 21) was less than 10 and the “Preservative Efficacy Test count, Bacterial Mixture, Days 28” value (Bacterial Mixture; day 28) was less than 10.
In the case of `CCCCC(O)CO` (stereo not shown) [1,2hexanediol], the “Yellowing at RT For 1 month” value [1, 4] is reported as “Yellow in 9 days”.
In the case of `CCCCCCC(O)CO` (stereo not shown) [Capryl glycol], the “Yellowing at RT For 1 month” value [1, 4] is reported as “Yellow in 30 days” and the “% of DHA soluble” value [2, 5] is reported as 2.5%.
For `C1CCCCC1` [Cyclohexane], the “Yellowing At 50° C.” value ([1]; DHA in the named aprotic solvent, 50° C., figures in brackets = Gardner color) was “Slight yellowing (2-3)”, the “Yellowing at RT For 1 month” value [1, 6] was “No yellowing” and the “% of DHA soluble” value [2] was 3-5%.
With `CO[C@H]1CO[C@H]2[C@@H]1OC[C@H]2OC` [Dimethyl isosorbide] the “Solvent (B): MIC of solvent acting alone (QB)” value (“Solvent (B): MIC” for short) [3] was 3125 ppm, the “Solvent (B): MIC” value (E. coli (ATCC 8739)) was 12500 ppm and the “% of DHA soluble” value ([2]; DHA in the named aprotic solvent (Table 8)) was 8-10%. For the same compound, the “Solvent (B): MIC” value (S. aureus (ATCC 6538)) was 12500 ppm.
For `COC(=O)C(C)O` (stereo not shown) [Methyl lactate], the “Yellowing at RT For 1 month” value [1, 6] was “No yellow”.
With `CC1COC(=O)O1` (stereo not shown) [Propylene carbonate, propylene carbonate] the MIC ([3]; read-out: Solvent (B): MIC of solvent acting alone (QB)) was 6250 µg/mL, the “Yellowing at RT For 1 month” value [1, 6] was “No yellowing” and the MIC (E. coli (ATCC 8739); Escherichia coli, ATCC8739, read-out: Solvent (B): MIC of solvent acting alone (QB)) was 6250 µg/mL. The MIC (S. aureus (ATCC 6538); Staphylococcus aureus, ATCC6538, read-out: Solvent (B): MIC of solvent acting alone (QB)) was 12.5 mg/mL.
For Phenethyl ethanol, the “Yellowing at RT For 1 month” value [1] was “Yellow on day one” and the “% of DHA soluble” value [2, 5] was 8%.
With Phenethylpropanol the “Yellowing at RT For 1 month” value [1, 4] was “yellow on day one”, the “% of DHA soluble” value [2] was 8% and the Comments ([2]; pH 8) was “Crystallize”.
With Water the “Yellowing at RT For 1 month” value ([1]; DHA in Water, pH 4) was “No yellowing” and the “Yellowing at RT For 1 month” value ([1]; DHA in Water, pH 8) was “Slight yellowing”.
